# Source: patent publication US9695155B2, “Herbicidal substituted pyrimidinyloxy benzene compounds” (E. I. DU PONT DE NEMOURS AND COMPANY, priority 2013, dated 2017)
# Assays:
# field poppy = experiment: Test D preemergence; format: in vivo, Papaver rhoeas
# Excerpt: (§1) Seeds of plant species selected from bluegrass (annual bluegrass, Poa annua), blackgrass (Alopecurus myosuroides), canarygrass (littleseed canarygrass, Phalaris minor), chickweed (common chickweed, Stellaria media), galium (catchweed bedstraw, Galium aparine), bromegrass, downy (downy bromegrass, Bromus tectorum), field poppy (Papaver rhoeas), field violet (Viola arvensis), green foxtail (Setaria viridis), deadnettle (henbit deadnettle, Lamium amplexicaule), Italian ryegrass (Lolium multiflorum), kochia (Kochia scoparia), lambsquarters (Chenopodium album), oilseed rape (Brassica napus), pigweed (Amaranthus retroflexus), chamomile (scentless chamomile, Matricaria inodora), Russian thistle (Salsola kali), speedwell (bird's-eye speedwell, Veronica persica), spring barley (Hordeum vulgare), spring wheat (Triticum aestivum), wild buckwheat (Polygonum convolvulus), wild mustard (Sinapis arvensis), wild oat (Avena fatua), wild radish (Raphanus raphanistrum), windgrass (Apera spica-venti), winter barley (Hordeum vulgare), and winter wheat (Triticum aestivum) were planted into a silt loam soil and treated preemergence with test chemicals formulated in a non-phytotoxic solvent mixture which included a surfactant.
# (§2) At the same time, these species were planted in pots containing Redi-Earth® planting medium (Scotts Company, 14111 Scottslawn Road, Marysville, Ohio 43041) comprising spaghnum peat moss, vermiculite, wetting agent and starter nutrients and treated with postemergence applications of the test chemicals formulated in the same manner. Plants ranged in height from 2 to 18 cm (1- to 4-leaf stage). Treated plants and controls were maintained in a controlled growth environment for 7 to 21 days after which time all species were compared to controls and visually evaluated. Plant response ratings, summarized in Table D, are based on a scale of 0 to 100 where 0 is no effect and 100 is complete control. A dash (-) response means no test result.
# oilseed rape = experiment: Test D postemergence; format: in vivo, Brassica napus
# Excerpt: as §1, §2
# windgrass = experiment: Test D preemergence; format: in vivo, Apera spica-venti
# Excerpt: as §1, §2
# wild mustard = experiment: Test D preemergence; format: in vivo, Sinapis arvensis
# Excerpt: as §1, §2
# wild buckwheat = experiment: Test D preemergence; format: in vivo, Polygonum convolvulus
# Excerpt: as §1, §2
# chamomile = experiment: Test D postemergence; format: in vivo, Matricaria inodora
# Excerpt: as §1, §2
# spring barley = experiment: Test D postemergence; format: in vivo, Hordeum vulgare
# Excerpt: as §1, §2
# winter barley = experiment: Test D postemergence; format: in vivo, Hordeum vulgare
# Excerpt: as §1, §2
# bromegrass, downy = experiment: Test D postemergence; format: in vivo, Bromus tectorum
# Excerpt: as §1, §2
# speedwell = experiment: Test D postemergence; format: in vivo, Veronica persica
# Excerpt: as §1, §2
# [1] = 16 g ai/ha, scale 0 (no effect) to 100 (complete control)
# [2] = 31 g ai/ha, scale 0 to 100 (0 no effect, 100 complete control)
# [3] = 62 g ai/ha, scale 0 to 100 (0 no effect, 100 complete control)
# [4] = 125 g ai/ha, scale 0 to 100 (0 no effect, 100 complete control)
# [5] = 250 g ai/ha, scale 0 to 100 (0 no effect, 100 complete control)
# [6] = Postemergence, 62 g ai/ha, scale 0 to 100 (0 no effect, 100 complete control)
# [7] = Postemergence, 31 g ai/ha, scale 0 to 100 (0 no effect, 100 complete control)
# [8] = Postemergence, 125 g ai/ha, scale 0 to 100 (0 no effect, 100 complete control)
# [9] = Postemergence, 250 g ai/ha, scale 0 to 100 (0 no effect, 100 complete control)
# [10] = postemergence, 16 g ai/ha, scale 0 to 100, 0 no effect, 100 complete control
smiles,measurement,setting,value
Clc1cnc(Oc2ccccc2-n2cc(Cl)cn2)nc1 [Compound 3],"Plant response rating, Field Poppy",field poppy; [1],40
same,"Plant response rating, Field Poppy","field poppy; 62 g ai/ha, scale 0-100",40
same,"Plant response rating, Field Poppy","field poppy; 125 g ai/ha, scale 0-100",70
same,"Plant response rating, Field Poppy","field poppy; 250 g ai/ha, scale 0-100",80
same,"Plant response rating, Oilseed Rape","oilseed rape; 16 g ai/ha, scale 0-100",90
same,"Plant response rating, Oilseed Rape",oilseed rape; [2],80
same,"Plant response rating, Oilseed Rape",oilseed rape; [3],80
same,"Plant response rating, Oilseed Rape",oilseed rape; [4],90
same,"Plant response rating, Oilseed Rape",oilseed rape; [5],95
same,"Plant response rating, Windgrass",windgrass; [1],0
same,"Plant response rating, Windgrass","windgrass; 31 g ai/ha, scale 0 (no effect) to 100 (complete control)",0
same,"Plant response rating, Windgrass","windgrass; 62 g ai/ha, scale 0-100",0
same,"Plant response rating, Windgrass","windgrass; 125 g ai/ha, scale 0-100",10
same,"Plant response rating, Windgrass","windgrass; 250 g ai/ha, scale 0-100",20
same,"Plant response rating, Mustard, Wild",wild mustard; [1],30
same,"Plant response rating, Mustard, Wild","wild mustard; 31 g ai/ha, scale 0-100",80
same,"Plant response rating, Mustard, Wild","wild mustard; 62 g ai/ha, scale 0-100",80
same,"Plant response rating, Mustard, Wild","wild mustard; 125 g ai/ha, scale 0-100",90
same,"Plant response rating, Mustard, Wild","wild mustard; 250 g ai/ha, scale 0-100",100
same,"Plant response rating, Buckwheat, Wild",wild buckwheat; [1],0
same,"Plant response rating, Buckwheat, Wild","wild buckwheat; 31 g ai/ha, scale 0-100",0
same,"Plant response rating, Buckwheat, Wild","wild buckwheat; 62 g ai/ha, scale 0-100",0
same,"Plant response rating, Buckwheat, Wild","wild buckwheat; 125 g ai/ha, scale 0-100",60
same,"Plant response rating, Buckwheat, Wild","wild buckwheat; 250 g ai/ha, scale 0-100",100
same,"Plant response rating, Chamomile","chamomile; 16 g ai/ha, scale 0-100",0
same,"Plant response rating, Chamomile",chamomile; [2],0
same,"Plant response rating, Chamomile",chamomile; [3],0
same,"Plant response rating, Chamomile",chamomile; [4],0
same,"Plant response rating, Chamomile",chamomile; [5],0
same,"Plant response rating, Barley, Spring",spring barley; [6],0
same,"Plant response rating, Barley, Spring",spring barley; [7],0
same,"Plant response rating, Barley, Spring",spring barley; [8],0
same,"Plant response rating, Barley, Spring",spring barley; [9],10
same,"Plant response rating, Barley, Spring",spring barley; [10],50
same,"Plant response rating, Barley, Winter",winter barley; [6],0
same,"Plant response rating, Barley, Winter",winter barley; [7],0
same,"Plant response rating, Barley, Winter",winter barley; [8],0
same,"Plant response rating, Barley, Winter",winter barley; [9],0
same,"Plant response rating, Barley, Winter",winter barley; [10],50
same,"Plant response rating, Bromegrass, Downy","bromegrass, downy; [6]",0
same,"Plant response rating, Bromegrass, Downy","bromegrass, downy; [7]",0
same,"Plant response rating, Bromegrass, Downy","bromegrass, downy; [8]",0
same,"Plant response rating, Bromegrass, Downy","bromegrass, downy; [9]",0
same,"Plant response rating, Bromegrass, Downy","bromegrass, downy; [10]",50
same,"Plant response rating, Speedwell","speedwell; 16 g ai/ha, scale 0-100",60
same,"Plant response rating, Speedwell",speedwell; [2],30
same,"Plant response rating, Speedwell",speedwell; [3],45
same,"Plant response rating, Speedwell",speedwell; [4],60
same,"Plant response rating, Speedwell",speedwell; [5],75
